These are literature values, as cited in patent US9138417B2, “Controlled release particles and production method thereof” (priority 2011, dated 2015).

Molecules are shown by their SMILES.

Turning to `CCCCNC(=O)OCC#CI` [IPBC, 3-iodo-2-propynylbutylcarbamate], the water solubility is listed as 150 ppm.
As for `C=C(C)C(=O)O` [Methacrylic acid], the water solubility is listed as 8.9 mass%.
Consider `CCCC1COC(Cn2cncn2)(c2ccc(Cl)cc2Cl)O1` (stereo not drawn) [Propiconazole, 1-[2-(2,4-dichlorophenyl)-4-n-propyl-1,3-dioxolane-2-ylmethyl]-1H-1,2,4-triazole], for which the water solubility was 110 ppm.
